From patent US20240237643A1, “COMPOSITIONS WITH VIRUCIDAL AND/OR ANTIVIRAL ACTIVITY” (priority 2020, published 2024)

Key:
Assay type in all cases: cell-based
[1] = system: Coronavirus (MHV-3); assay: Virucidal activity, quantitative suspension test DIN EN 14476
Method: (§1) Testing was conducted over a period of 1 to 10 minutes. Activity against the following viruses was determined: • Coronavirus (MHV-3) • Influenza virus (H1N1) • Herpes simplex virus (HV) • Human respiratory syncytial virus (HRSV)
(§2) In this context (+) means that more than 99.99% of all viruses were inactivated; this is equivalent to a reduction factor of 10,000.

[2] = system: Human respiratory syncytial virus (HRSV); assay: as above
[3] = system: all virus types (MHV-3, H1N1, HV, HRSV); assay: Virucidal activity DIN EN 14476, summary over all virus types; details: concentration of 0.1 wt.-percent
Method: as §1, §2

[4] = system: Influenza virus (H1N1); assay: Virucidal activity, quantitative suspension test DIN EN 14476
[5] = system: Herpes simplex virus (HV); assay: as above
[6] = 0.1 wt.-percent in water, 1 min
[7] = 0.1 wt.-percent in water, 10 min
[8] = 10 wt.-percent in water, 10 min

SMILES: CC(C)=CCCC(C)=CCCC(C)=CCO [3,7,11-trimethyl-2,6,10-dodecantrien-1-ol]
- Virucidal activity MHV-3 [1, 6]: (+) ((+) means that more than 99.99% of all viruses were inactivated; this is equivalent to a reduction factor of 10,000)
- Virucidal activity MHV-3 [1, 7]: (+) ((+) means that more than 99.99% of all viruses were inactivated; this is equivalent to a reduction factor of 10,000)
- Virucidal activity MHV-3 ([1]; 1 wt.-percent in water, 1 min): (+) ((+) means that more than 99.99% of all viruses were inactivated; this is equivalent to a reduction factor of 10,000)
- Virucidal activity MHV-3 ([1]; 1 wt.-percent in water, 10 min): (+) ((+) means that more than 99.99% of all viruses were inactivated; this is equivalent to a reduction factor of 10,000)
- Virucidal activity MHV-3 ([1]; 10 wt.-percent in water, 1 min): (+) ((+) means that more than 99.99% of all viruses were inactivated; this is equivalent to a reduction factor of 10,000)
- Virucidal activity MHV-3 [1, 8]: (+) ((+) means that more than 99.99% of all viruses were inactivated; this is equivalent to a reduction factor of 10,000)
- Virucidal activity HRSV [2, 6]: (+) ((+) means that more than 99.99% of all viruses were inactivated; this is equivalent to a reduction factor of 10,000)
- Virucidal activity HRSV [2, 7]: (+) ((+) means that more than 99.99% of all viruses were inactivated; this is equivalent to a reduction factor of 10,000)
- Virucidal activity HRSV ([2]; 1 wt.-percent in water, 1 min): (+) ((+) means that more than 99.99% of all viruses were inactivated; this is equivalent to a reduction factor of 10,000)
- Virucidal activity HRSV ([2]; 1 wt.-percent in water, 10 min): (+) ((+) means that more than 99.99% of all viruses were inactivated; this is equivalent to a reduction factor of 10,000)
- Virucidal activity HRSV ([2]; 10 wt.-percent in water, 1 min): (+) ((+) means that more than 99.99% of all viruses were inactivated; this is equivalent to a reduction factor of 10,000)
- Virucidal activity HRSV [2, 8]: (+) ((+) means that more than 99.99% of all viruses were inactivated; this is equivalent to a reduction factor of 10,000)
- reduction factor [3]: 10,000
- Virucidal activity H1N1 [4, 6]: (+) ((+) means that more than 99.99% of all viruses were inactivated; this is equivalent to a reduction factor of 10,000)
- Virucidal activity H1N1 [4, 7]: (+) ((+) means that more than 99.99% of all viruses were inactivated; this is equivalent to a reduction factor of 10,000)
- Virucidal activity H1N1 ([4]; 1 wt.-percent in water, 1 min): (+) ((+) means that more than 99.99% of all viruses were inactivated; this is equivalent to a reduction factor of 10,000)
- Virucidal activity H1N1 ([4]; 1 wt.-percent in water, 10 min): (+) ((+) means that more than 99.99% of all viruses were inactivated; this is equivalent to a reduction factor of 10,000)
- Virucidal activity H1N1 ([4]; 10 wt.-percent in water, 1 min): (+) ((+) means that more than 99.99% of all viruses were inactivated; this is equivalent to a reduction factor of 10,000)
- Virucidal activity H1N1 [4, 8]: (+) ((+) means that more than 99.99% of all viruses were inactivated; this is equivalent to a reduction factor of 10,000)
- Virucidal activity HV [5, 6]: (+) ((+) means that more than 99.99% of all viruses were inactivated; this is equivalent to a reduction factor of 10,000)
- Virucidal activity HV [5, 7]: (+) ((+) means that more than 99.99% of all viruses were inactivated; this is equivalent to a reduction factor of 10,000)
- Virucidal activity HV ([5]; 1 wt.-percent in water, 1 min): (+) ((+) means that more than 99.99% of all viruses were inactivated; this is equivalent to a reduction factor of 10,000)
- Virucidal activity HV ([5]; 1 wt.-percent in water, 10 min): (+) ((+) means that more than 99.99% of all viruses were inactivated; this is equivalent to a reduction factor of 10,000)
- Virucidal activity HV ([5]; 10 wt.-percent in water, 1 min): (+) ((+) means that more than 99.99% of all viruses were inactivated; this is equivalent to a reduction factor of 10,000)
- Virucidal activity HV [5, 8]: (+) ((+) means that more than 99.99% of all viruses were inactivated; this is equivalent to a reduction factor of 10,000)
